In the assay the test system is Wnt activity (SW480 colon carcinoma cells stably expressing the Sp5-Luc reporter gene). The assay can be described thus: Sp5-Luc reporter gene screening assay for Wnt activity. In kind it is cell-based. Conditions: Homo sapiens. The text has this:
The screening assay for Wnt activity is described as follows. Reporter cell lines can be generated by stably transducing cancer cell lines (e.g., colon cancer) or primary cells (e.g., IEC-6 intestinal cells) with a lentiviral construct that includes a Wnt-responsive promoter driving expression of the firefly luciferase gene.
SW480 colon carcinoma cells were transduced with a lentiviral vector expressing luciferase with a human Sp5 promoter consisting of a sequence of eight TCF/LEF binding sites. SW480 cells stably expressing the Sp5-Luc reporter gene and a hygromycin resistance gene were selected by treatment with 150 μg/ml of hygromycin for 7 days. These stably transduced SW480 cells were expanded in cell culture and used for all further screening activities. For Sp5-Luc reporter gene assays, the cells were plated at 10,000 cells/well in 96-well plates with growth medium containing 10% fetal calf serum and incubated overnight at 37° C. and 5% CO2. Each compound was dissolved in DMSO as a 10 mM stock in standard j-vials and used to prepare compound source plates in dose-response format with 3-fold serial dilutions and a 10 mM top concentration. Compound transfer from serially diluted source plates to assay plates containing the cells was accomplished using a pintool (Multimek 96, Beckman equipped with V&P Scientific FP1S50H pins) based liquid handling protocol. This protocol used a slotted pin to transfer 50 nl of compound from a source plate well to an assay plate well containing 50 μl of cells in growth medium. […] Control wells received 50 nl of DMSO treatment for normalization and calculating IC50 values. The treated cells were incubated at 37° C. and 5% CO2 for an additional forty-two hours. Following incubation, the growth medium was removed and 50 μl of BrightGlo luminescence reagent (Promega) was added to each well of the 96-well assay plates. The plates were placed on an orbital shaker for 5 min and then luminescence was quantified on the Victor3 (Perkin Elmer) plate reader. Readings were normalized to DMSO only treated cells, and normalized activities were utilized for IC50 calculations using the dose-response log (inhibitor) vs. response -variable slope (four parameters) nonlinear regression feature available in GraphPad Prism 5.0 or 6.0.
On the technique in general: Reporter assays use an easily measured gene product as a stand-in for the process of interest.

Here are results for 20 molecules from patent US10526347B2, “3-(3H-imidazo[4,5-B]pyridin-2-yl)-1H-pyrazolo[3,4-B]pyridine and therapeutic uses thereof” (Samumed, LLC, priority 2014, dated 2020).

As a reminder, the IC50 is the concentration needed to halve the response being measured.

`CC(C)CC(=O)Nc1cncc(-c2cnc3[nH]nc(-c4nc5c(-c6cc(F)cc(OCCN(C)C)c6)ccnc5[nH]4)c3c2)c1` [Compound 1234, N-(5-(3-(7-(3-(2-(Dimethylamino)ethoxy)-5-fluorophenyl)-3H-imidazo[4,5-b]pyridin-2-yl)-1H-pyrazolo[3,4-b]pyridin-5-yl)pyridin-3-yl)-3-methylbutanamide] came in with an IC50 of 1130 nM.
The value for `Fc1cccc(-c2ccnc3[nH]c(-c4n[nH]c5ncc(-c6cncc(OC7CCCCC7)c6)cc45)nc23)c1` [Compound 915, 5-(5-(Cyclohexyloxy)pyridin-3-yl)-3-(7-(3-fluorophenyl)-3H-imidazo[4,5-b]pyridin-2-yl)-1H-pyrazolo[3,4-b]pyridine] was above 10000 nM; that for `CN(C)c1cncc(-c2cnc3[nH]nc(-c4nc5c(-c6cccc(F)c6)ccnc5[nH]4)c3c2)c1` [Compound 5, 5-(3-(7-(3-Fluorophenyl)-3H-imidazo[4,5-b]pyridin-2-yl)-1H-pyrazolo [3,4-b]pyridin-5-yl)-N,N-dimethylpyridin-3-amine] was 172 nM; that for `FC1(F)CCN(Cc2cncc(-c3cnc4[nH]nc(-c5nc6c(-c7cccs7)ccnc6[nH]5)c4c3)c2)C1` [Compound 309, 5-(5-((3,3-Difluoropyrrolidin-1-yl)methyl)pyridin-3-yl)-3-(7-(thiophen-2-yl)-3H-imidazo[4,5-b]pyridin-2-yl)-1H-pyrazolo[3,4-b]pyridine] was 38 nM.
The molecule `CC(C)(C)CC(=O)Nc1cncc(-c2cnc3[nH]nc(-c4nc5c(-c6ccccc6F)ccnc5[nH]4)c3c2)c1` [Compound 57, N-(5-(3-(7-(2-Fluorophenyl)-3H-imidazo[4,5-b]pyridin-2-yl)-1H-pyrazolo[3,4-b]pyridin-5-yl)pyridin-3-yl)-3,3-dimethylbutanamide] displayed an IC50 of 118 nM.
In the case of `COc1cc(F)cc(-c2ccnc3[nH]c(-c4n[nH]c5ncc(-c6cncc(NC(=O)CC(C)C)c6)cc45)nc23)c1` [Compound 1366, N-(5-(3-(7-(3-Fluoro-5-methoxyphenyl)-3H-imidazo[4,5-b]pyridin-2-yl)-1H-pyrazolo[3,4-b]pyridin-5-yl)pyridin-3-yl)-3-methylbutanamide] it was 125 nM.
`Fc1ccc(-c2ccnc3[nH]c(-c4n[nH]c5ncc(-c6cncnc6)cc45)nc23)cc1` [Compound 44, 3-(7-(4-Fluorophenyl)-3H-imidazo[4,5-b]pyridin-2-yl)-5-(pyrimidin-5-yl)-1H-pyrazolo[3,4-b]pyridine]: half-maximal inhibition (IC50) was put at 377 nM.
`CN1CCN(c2ccnc3[nH]c(-c4n[nH]c5ncc(-c6cncnc6)cc45)nc23)CC1` [Compound 209, 3-(7-(4-Methylpiperazin-1-yl)-3H-imidazo[4,5-b]pyridin-2-yl)-5-(pyrimidin-5-yl)-1H-pyrazolo[3,4-b]pyridine]: the IC50 is above 10000 nM.
For `CC(C)CC(=O)Nc1cncc(-c2cnc3[nH]nc(-c4nc5c(-c6cc(F)cc(OCCN7CCCC7)c6)ccnc5[nH]4)c3c2)c1` [Compound 1278, N-(5-(3-(7-(3-Fluoro-5-(2-(pyrrolidin-1-yl)ethoxy)phenyl)-3H-imidazo[4,5-b]pyridin-2-yl)-1H-pyrazolo[3,4-b]pyridin-5-yl)pyridin-3-yl)-3-methylbutanamide], the 50% inhibitory concentration (IC50) turned out to be 890 nM.
The molecule `O=C(CC1CCCCC1)Nc1cncc(-c2cnc3[nH]nc(-c4nc5c(-c6cccc(F)c6)ccnc5[nH]4)c3c2)c1` [Compound 923, 2-Cyclohexyl-N-(5-(3-(7-(3-fluorophenyl)-3H-imidazo[4,5-b]pyridin-2-yl)-1H-pyrazolo[3,4-b]pyridin-5-yl)pyridin-3-yl)acetamide] yielded an IC50 above 10000 nM.
The value for `CN(C)c1cncc(-c2cnc3[nH]nc(-c4nc5c(-c6cccs6)ccnc5[nH]4)c3c2)c1` [Compound 291, N,N-Dimethyl-5-(3-(7-(thiophen-2-yl)-3H-imidazo[4,5-b]pyridin-2-yl)-1H-pyrazolo[3,4-b]pyridin-5-yl)pyridin-3-amine] was 43.8 nM.
The value for `CC(C)CC(=O)Nc1cncc(-c2cnc3[nH]nc(-c4nc5c(-c6cc(O)cc(F)c6)ccnc5[nH]4)c3c2)c1` [Compound 1322, N-(5-(3-(7-(3-Fluoro-5-hydroxyphenyl)-3H-imidazo[4,5-b]pyridin-2-yl)-1H-pyrazolo[3,4-b]pyridin-5-yl)pyridin-3-yl)-3-methylbutanamide] was 395 nM; that for `CCCCC(=O)Nc1cncc(-c2cnc3[nH]nc(-c4nc5c(-c6ccoc6)ccnc5[nH]4)c3c2)c1` [Compound 276, N-(5-(3-(7-(Furan-3-yl)-3H-imidazo[4,5-b]pyridin-2-yl)-1H-pyrazolo [3,4-b]pyridin-5-yl)pyridin-3-yl)pentanamide] was 8.1 nM; that for `Fc1cccc(-c2ccnc3[nH]c(-c4n[nH]c5ncc(-c6cncc(OCc7ccccc7)c6)cc45)nc23)c1` [Compound 922, 5-(5-(Benzyloxy)pyridin-3-yl)-3-(7-(3-fluorophenyl)-3H-imidazo[4,5-b]pyridin-2-yl)-1H-pyrazolo[3,4-b]pyridine] was above 10000 nM.
`Fc1cccc(-c2ccnc3[nH]c(-c4n[nH]c5ncc(-c6cncc(OCCN7CCCC7)c6)cc45)nc23)c1` [Compound 918, 3-(7-(3-Fluorophenyl)-3H-imidazo[4,5-b]pyridin-2-yl)-5-(5-(2-(pyrrolidin-1-yl)ethoxy)pyridin-3-yl)-1H-pyrazolo[3,4-b]pyridine] showed an IC50 above 10000 nM.
`NC1CN(c2cncc(-c3cnc4[nH]nc(-c5nc6c(-c7cccc(F)c7)ccnc6[nH]5)c4c3)n2)C1` [Compound 914, 1-(6-(3-(7-(3-Fluorophenyl)-3H-imidazo[4,5-b]pyridin-2-yl)-1H-pyrazolo [3,4-b]pyridin-5-yl)pyrazin-2-yl)azetidin-3-amine] came in with an IC50 of 1020 nM.
In the case of `O=C(CC1CCNCC1)Nc1cncc(-c2cnc3[nH]nc(-c4nc5c(-c6cccc(F)c6)ccnc5[nH]4)c3c2)c1` [Compound 917, N-(5-(3-(7-(3-Fluorophenyl)-3H-imidazo[4,5-b]pyridin-2-yl)-1H-pyrazolo [3,4-b]pyridin-5-yl)pyridin-3-yl)-2-(piperidin-4-yl)acetamide] it was above 10000 nM; in that of `CN1CCN(c2ccnc3[nH]c(-c4n[nH]c5ncc(-c6cncc(NC(=O)C7CCCC7)c6)cc45)nc23)CC1` [Compound 204, N-(5-(3-(7-(4-Methylpiperazin-1-yl)-3H-imidazo[4,5-b]pyridin-2-yl)-1H-pyrazolo[3,4-b]pyridin-5-yl)pyridin-3-yl)cyclopentanecarboxamide], 312 nM.
`Fc1cccc(-c2ccnc3[nH]c(-c4n[nH]c5ncc(-c6cncc(CN7CCC(F)(F)C7)c6)cc45)nc23)c1` [Compound 21, 5-(5-((3,3-Difluoropyrrolidin-1-yl)methyl)pyridin-3-yl)-3-(7-(3-fluorophenyl)-3H-imidazo[4,5-b]pyridin-2-yl)-1H-pyrazolo[3,4-b]pyridine] yielded an IC50 of 35.8 nM.
In turn, `CC(C)(C)CC(=O)Nc1cncc(-c2cnc3[nH]nc(-c4nc5cccnc5[nH]4)c3c2)c1` [Compound 222, N-(5-(3-(3H-Imidazo[4,5-b]pyridin-2-yl)-1H-pyrazolo[3,4-b]pyridin-5-yl)pyridin-3-yl)-3,3-dimethylbutanamide] had a half-inhibitory concentration (IC50) of 192 nM.
